From patent publication EP1113726B1, “USE OF NEOHESPERIDIN DIHYDROCHALCONE FOR THE MANUFACTURE OF A MEDICAMENT FOR PREVENTING OR TREATING ELEVATED BLOOD LIPID LEVEL-RELATED DISEASES” (Korea Research Institute of Bioscience and Biotechnology, priority 1998, dated 2000)

Tests used:
Type in all cases: in vivo
[1] = tested on: New Zealand White rabbits; assay: Chemical analysis of blood of cholesterol-fed rabbits; settings: rabbit serum, 1 % cholesterol diet for 6 weeks plus 1 mg/kg Lovastatin or 0.05 % neohesperidin dihydrochalcone
Procedure: (§1) 30 three-month-old New Zealand White rabbits(Yeonam Horticulture and Animal Husbandry College, Korea), each weighing about 2.5 to 2.6 kg, were raised under a condition of temperature 20±2°C, relative humidity 55±5 %, and photoperiod 12L/12D. The rabbits were divided into 3 groups and 3 groups of rabbits were fed with 3 different diets, i.e., RC4 diet(Oriental Yeast Co., Japan) containing 1 % cholesterol(Control group); 1 % cholesterol plus 1 mg/kg Lovastatin®(Merck, U.S.A.)(Lovastatin group); and 1 % cholesterol plus 0.05 % neohesperidin dihydrochalcone(Neohesperidin dihydrochalcone group), respectively. RC4 diet comprises 7.6 % moisture, 22.8 % crude protein, 2.8 % crude fat, 8.8 % crude ash, 14.4 % crude cellulose and 43.6 % soluble nitrogen-free substances. Neohesperidin dihydrochalcone was purchased from Sigma Chemical Co.(St. Louis, MO).
(§2) The rabbits were fed for 6 weeks while being allowed free access to the diets and water.
After six weeks, the rabbits were anesthetized with an intramuscular injection of ketamine (50 mg/kg) in the femoral region and sacrificed.

[2] = tested on: New Zealand White rabbits; assay: Analysis for fatty streak in the main artery of cholesterol-fed rabbits (Oil Red O staining); settings: 1 % cholesterol diet for 6 weeks plus 1 mg/kg Lovastatin or 0.05 % neohesperidin dihydrochalcone
Procedure: as §1, §2
The chest of each of the rabbits sacrificed in Step 2 was incised. The downward portion of the main artery from the site 1 cm above the aortic valve was cut out in a length of about 5 cm and the fat surrounding the main artery was removed. The main artery was incised in the middle along the longitudinal axis and pinned to a dish. The moist artery was photographed and, then, the staining of fatty streaks was carried out in accordance with the method of Esper, E., et al. (J. Lab. Clin. Med., 121, 103-110(1993)) as follows.
A part of the incised main artery was washed three times with anhydrous propylene glycol for 2 min and stained for 30 min. with a saturated solution of Oil Red O(ORO, Sigma Co.) dissolved in propylene glycol. Thereafter, the artery was washed twice with 85 % propylene glycol for 3 min. to remove remaining staining solution and, then washed with physiological saline. The artery was photographed and the photograph was traced. The area of stained region (fatty streak region) was determined with an image analyzer(LEICA, Q-600, Germany) and its proportion(%) to the total arterial area was calculated.

[3] = tested on: New Zealand White rabbits; assay: Microscopic grading of abnormal fat-containing cells in the liver of cholesterol-fed rabbits (fatty liver); settings: 1 % cholesterol diet for 6 weeks plus 1 mg/kg Lovastatin or 0.05 % neohesperidin dihydrochalcone
Procedure: as §1, §2
In order to evaluate the effects of feeding a high cholesterol diet with neohesperidin dihydrochalcone on liver tissues, the liver specimens taken from the sacrificed rabbit in Step 2 of Example 6 were treated in accordance with the procedure disclosed in Fogt F. and Nanji A., Toxicology and Applied Pharmacology, 136, 87-93, 1996; and Keegan A., et al., Journal of Hepatology 23: 591-600, 1995, and observed under a microscope to be classified into four grades, i.e., 1+(0-25%), 2+(26-50%), 3+(51-75), 4+(76-100%) based on the proportion of abnormal fat-containing cells around the central vein in the liver acinus.
Figs. 2A, 2B and 2C present the microscopic features of the livers of the rabbits administered with 1% cholesterol; 1% cholesterol plus 1 mg/kg Lovastatin®; 1% and cholesterol plus 0.05% neohesperidin dihydrochalcone, respectively.

GOT [1]: 125 (±19) IU/1
GPT [1]: 73 (±9) IU/l
γ-GTP [1]: 12.4 (±0.8) IU/l
SMILES: CC[C@H](C)C(=O)O[C@H]1C[C@@H](C)C=C2C=C[C@H](C)[C@H](CC[C@@H]3C[C@@H](O)CC(=O)O3)[C@H]21 [Lovastatin, reference compound]
Total-C [1]: 1210 (±263) mg/dl
A: Proportion(%) of fatty streak region to the total arterial area ([2]; rabbit main artery): 5 (±4) %
layer of macrophage-lipid complex on the arterial endothelium (Figs. 1B, 1C) ([2]; rabbits): no or very thin layers of macrophage-lipid complex
B: Proportion of abnormal fat-containing cells ([3]; rabbit liver, cells around the central vein, mean of grades 1+ to 4+): 3.4 (±0.5)
microscopic features of the liver (Figs. 2B, 2C) ([3]; rabbits): many cells containing excessive fat
